Experimental data: patent US20040077625A1, “Novel 1,4-benzothiazepine and 1,5-benzothiazepine compounds as inhibitors of apical sodium codependent bile acid transport abd taurocholate uptake” (priority 2001, published 2004)

Biological target: T1, human IBAT (Homo sapiens, UniProt Q12908)
T1 construct: expressed in transfected cells; host or cells: Baby hamster kidney (BHK) cells, H14 cells
T1 sequence (Q12908 1-348): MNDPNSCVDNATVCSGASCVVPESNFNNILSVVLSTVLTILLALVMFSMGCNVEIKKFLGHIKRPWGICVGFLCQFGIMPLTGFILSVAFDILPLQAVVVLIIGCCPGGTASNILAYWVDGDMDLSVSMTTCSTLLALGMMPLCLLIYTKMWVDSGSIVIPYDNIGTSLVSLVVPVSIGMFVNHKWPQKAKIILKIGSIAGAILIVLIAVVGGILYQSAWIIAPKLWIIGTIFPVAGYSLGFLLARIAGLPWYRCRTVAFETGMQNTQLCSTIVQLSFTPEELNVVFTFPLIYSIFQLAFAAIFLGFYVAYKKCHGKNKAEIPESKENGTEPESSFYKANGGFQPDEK
Assay: In vitro assay of compounds that inhibit IBAT-mediated uptake of [14C]-taurocholate (TC) in H14 cells
Type: cell-based
Conditions: Table 8, 1, 4 and 1, 5 benzothiazipines
Method: In Vitro Assay of Compounds that Inhibit IBAT-Mediated Uptake of [^14C]-Taurocholate (TC) in H14Cells
Baby hamster kidney cells (BHK) transfected with the cDNA of human IBAT (H14 cells) are seeded in 96 well Top-Count tissue culture plates at 60,000 cells/well for assays run within 24 hours of seeding, 30,000 cells/well for assays run within 48 hours, and 10,000 cells/well for assays run within 72 hours.
On the day of assay, the cell monolayer is gently washed once with […] (Dulbecco's Modified Eagle's medium with 4.5 g/L glucose plus 0.2% (w/v) fatty acid free bovine serum albumin ((FAF)BSA). To each well […] of a two-fold concentrate of test compound in assay buffer is added along with […] of […] [^14C]-taurocholate in assay buffer (final concentration of […] [^14C]-taurocholate). The cell culture plates are incubated 2 hours at 37° C. prior to gently washing each well twice with […] 4° C. Dulbecco's phosphate-buffered saline (PBS) containing 0.2% (w/v) (FAF)BSA. The wells are then gently washed once with […] 4° C. PBS without (FAF)BSA. To each […] of liquid, scintillation counting fluid is added. The plates are heat sealed and shaken for 30 minutes at room temperature prior to measuring the amount of radioactivity in each well on a Packard Top-Count instrument.

IC50: 497 nM
SMILES: CCCCC1(CCCC)CS(=O)(=O)c2ccc(N(C)C)cc2[C@@H](c2ccc(OC)cc2)N1 (racemic) [Compound 2, 3.3-Dibutyl-2.3,4,5-tetrahydro-7-dimethylamino-5-(4′-methoxyphenyl)-1,4-benzothiazepine 1,1-dioxide]
